Laboratory results published in PMC11053944, “FRET Assays for the Identification of C. albicans HSP90-Sba1 and Human HSP90α-p23 Binding Inhibitors” (Pharmaceuticals, 2024).
“Also recorded” adds a separate entry of the source. Read-outs that look alike come from different tables or passages of the source.

Key:
[1] = biological target: T1, C. albicans HSP90-mNeonGreen (Candida albicans, UniProt P46598); assay: Microscale thermophoresis, AMP-PNP binding; details: 50 nM HSP90-mNeonGreen, 25 °C, error of the fit; read-out: Kd, binding to C. albicans HSP90-mNeonGreen (MST)
T1 construct: made in house; host or cells: E. coli BL21(DE3)
T1 sequence (P46598 whole entry): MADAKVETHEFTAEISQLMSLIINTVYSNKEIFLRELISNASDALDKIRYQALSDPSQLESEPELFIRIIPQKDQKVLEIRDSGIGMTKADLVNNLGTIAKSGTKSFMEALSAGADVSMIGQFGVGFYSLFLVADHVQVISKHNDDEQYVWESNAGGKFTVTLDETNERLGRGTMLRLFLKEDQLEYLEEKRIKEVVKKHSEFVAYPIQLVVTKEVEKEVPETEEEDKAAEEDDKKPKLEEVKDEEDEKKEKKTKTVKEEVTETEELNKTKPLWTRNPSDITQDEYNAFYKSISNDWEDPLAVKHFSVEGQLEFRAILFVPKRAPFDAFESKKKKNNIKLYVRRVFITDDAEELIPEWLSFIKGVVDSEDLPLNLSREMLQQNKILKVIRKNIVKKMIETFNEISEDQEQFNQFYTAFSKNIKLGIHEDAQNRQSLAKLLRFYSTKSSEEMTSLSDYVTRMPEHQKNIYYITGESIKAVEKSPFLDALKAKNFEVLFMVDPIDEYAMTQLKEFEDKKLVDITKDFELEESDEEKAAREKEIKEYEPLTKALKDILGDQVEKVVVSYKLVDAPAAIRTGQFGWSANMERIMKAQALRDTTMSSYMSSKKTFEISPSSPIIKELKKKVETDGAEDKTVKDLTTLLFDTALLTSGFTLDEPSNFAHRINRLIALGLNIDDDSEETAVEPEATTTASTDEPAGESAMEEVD
Description: HSP90-mNeonGreen (C. albicans) or mNeonGreen serving as the negative control was adjusted to 100 nM with Sba1 buffer (40 mM HEPES/KOH pH 7.5, 20 mM KCl). The ligand AMP-PNP was dissolved in 2x reaction buffer (40 mM HEPES/KOH pH 7.5, 20 mM KCl, 10 mM MgCl2, 40 mM Na2MoO4, 0.2% Triton-X 100), and a series of 16 1:1 dilutions was prepared using the same buffer, producing ligand concentrations ranging from […] to […]. For the measurement, each ligand dilution was mixed with one volume of HSP90-mNeonGreen or mNeonGreen, which led to a final concentration of 50 nM and final ligand concentrations ranging from 153 nM to […]. After 5 min incubation at room temperature, the samples were loaded into Monolith NT.115 Capillaries (NanoTemper Technologies, Munich, Germany). MST was measured using a Monolith NT.115 at an ambient temperature of 25 °C. Instrument parameters were adjusted to 35% LED power and a high MST power of 80%. Data of three independently pipetted measurements were analyzed (MO.Affinity Analysis software version 2.1.3, NanoTemper Technologies, Munich, Germany) using the signal from an MST-on time of 30 s.

[2] = biological target: human HSP90β; set-up: method as in earlier work; details: 25 °C; ref 37 (McLaughlin et al.); read-out: Kd, binding to human HSP90β; cited from earlier work
[3] = biological target: human HSP90β–p23 complex; set-up: method as in PMID 16403413; details: read-out: Kd, binding to human HSP90β–p23 complex; cited from earlier work
[4] = biological target: T2, C. albicans HSP90–Sba1 binding (Candida albicans, UniProt P46598); assay: FRET inhibitor screening assay, C. albicans HSP90-Sba1 binding; details: 10 or 100 µM (Sba1 20 µM), triplicates, 3 mM ATP, 1% DMSO, 15 min 30 °C
T2 construct: made in house; host or cells: E. coli BL21(DE3)
T2 sequence (P46598 whole entry): as above
From the text: We used the Z′ factor (Z′) to optimize the FRET assays for screening purposes. Z′ represents a simple statistical parameter for the quality assessment and optimization of HTS assays and screening assays in general. It is a measure that determines the degree of signal separation between binding and non-binding data sets. Calculation of the Z′ factor is based on the standard deviation of the individual data sets as well as their general signal separation. Values ≥ 0.5 can be classified as excellent for screening purposes. […] When the fluorescent fusion proteins of HSP90 and co-chaperones bind to each other, FRET occurs between donor and acceptor fluorophores, and the sensitized emission (EmFRET) signal increases. Consequently, the fluorescence intensity of the donor decreases (FLDD). […] To obtain an informative Z′ value, we calculated it based on at least three independent experiments amounting to 144 samples for both binding and non-binding control data sets (Figure 4B,E). […] We defined the ‘hit threshold’ as a decrease in readout signal of more than 3 standard deviations (SDs) from the mean signal of the binding control. This constitutes a common threshold for hit identification in HTS campaigns.
(§1) FRET experiments were carried out in 384-well microtiter plates (Art. No. 3766 Corning, NY, USA, or Art. No. 781906, Greiner Bio-One GmbH, Frickenhausen, Germany) containing a final volume of 20 µL and measured with a microplate reader Infinite M200Pro (Tecan, Männedorf, Switzerland). The fluorescence was measured in three channels: excitation (ex.): 488 nm/emission (em.): 525 nm (mNeonGreen fluorescence), ex.: 561 nm/em.: 610 nm (mScarlet-I fluorescence) and the FRET channel ex.: 488 nm/em.: 610 nm. The excitation and emission bandwidths were set to 9 and 20 nm, respectively. Experiments for the determination of the equilibrium dissociation constants were performed with a filter-based microplate reader Infinite F200Pro (Tecan, Männedorf, Switzerland). The fluorescence was measured in three channels using the following filters: ex.: 485 ± 20 nm/em.: 535 ± 20 nm (mNeonGreen channel), ex.: 535 ± 20 nm/em.: 612 ± 10 nm (mScarlet-I channel) and the FRET channel ex.: 485 ± 20 nm/em.: 612 ± 10 nm. FRET emission (EmFRET) was calculated according to Song et al. 2011 [81]:(1) EmFRET=FLDA−x×FLDD−(y×FLAA) where FLDA is the fluorescence signal of the FRET channel and FLDD and FLAA are fluorescence signals from the mNeonGreen and mScarlet-I channels, respectively. The correction factors x and y were calculated as follows:(2) x=FLDA/FLDD for samples containing only the donor fluorophore or fluorescent fusion proteins with mNeonGreen and (3) y=FLDA/FLAA for samples containing only the acceptor fluorophore or fluorescent fusion proteins with mScarlet-I in the same concentration as samples containing both the donor and acceptor.
For screening for the identification of ATP-competitive C. albicans HSP90 and HSP90-Sba1 binding inhibitors, 10 µL of HSP90-mNeonGreen ([…]) in HEPES buffer (40 mM HEPES/KOH pH 7.5, 20 mM KCl) was mixed with 10 µL of 200 µM compound solution in 2x reaction buffer (40 mM HEPES/KOH pH 7.5, 20 mM KCl, 10 mM MgCl2, 40 mM Na2MoO4, Triton-X 100 0.2%), 6 mM ATP, 2% DMSO, resulting […] Samples for binding control (3 mM ATP, final concentration) and non-binding control (no ATP) were prepared in the same manner without compounds. The samples were incubated for 15 min at 30 °C prior to measurement.

[5] = biological target: HSP90; details: cited from earlier work
[6] = system: HSP90 - Sba1/p23 binding; details: according to literature; cited from earlier work
[7] = biological target: T3, human HSP90α–p23 binding (Homo sapiens, UniProt P07900); assay: FRET inhibitor screening assay, human HSP90α-p23 binding; details: 10 or 100 µM, triplicates, 3 mM ATP, 1% DMSO, 15 min 37 °C
T3 construct: made in house; host or cells: E. coli Rosetta2(DE3) pLysS
From the text: We used the Z′ factor (Z′) to optimize the FRET assays for screening purposes. Z′ represents a simple statistical parameter for the quality assessment and optimization of HTS assays and screening assays in general. It is a measure that determines the degree of signal separation between binding and non-binding data sets. Calculation of the Z′ factor is based on the standard deviation of the individual data sets as well as their general signal separation. Values ≥ 0.5 can be classified as excellent for screening purposes. […] When the fluorescent fusion proteins of HSP90 and co-chaperones bind to each other, FRET occurs between donor and acceptor fluorophores, and the sensitized emission (EmFRET) signal increases. Consequently, the fluorescence intensity of the donor decreases (FLDD). […] We defined the ‘hit threshold’ as a decrease in readout signal of more than 3 standard deviations (SDs) from the mean signal of the binding control. This constitutes a common threshold for hit identification in HTS campaigns.
The excitation and emission bandwidths were set to 9 and 20 nm, respectively. Experiments for the determination of the equilibrium dissociation constants were performed with a filter-based microplate reader Infinite F200Pro (Tecan, Männedorf, Switzerland). […] The correction factors x and y were calculated as follows:(2) x=FLDA/FLDD for samples containing only the donor fluorophore or fluorescent fusion proteins with mNeonGreen and (3) y=FLDA/FLAA for samples containing only the acceptor fluorophore or fluorescent fusion proteins with mScarlet-I in the same concentration as samples containing both the donor and acceptor.
For screening for the identification of ATP-competitive C. albicans HSP90 and HSP90-Sba1 binding inhibitors, 10 µL of HSP90-mNeonGreen (2 µM) and Sba1-mScarlet-I (4 µM) in HEPES buffer (40 mM HEPES/KOH pH 7.5, 20 mM KCl) was mixed with 10 µL of 200 µM compound solution in 2x reaction buffer (40 mM HEPES/KOH pH 7.5, 20 mM KCl, 10 mM MgCl2, 40 mM Na2MoO4, Triton-X 100 0.2%), 6 mM ATP, 2% DMSO, resulting ultimately in constant HSP90-mNeonGreen concentrations of 1 µM and Sba1-mScarlet-I 2 µM in reaction buffer. Samples for binding control (3 mM ATP, final concentration) and non-binding control (no ATP) were prepared in the same manner without compounds. The samples were incubated for 15 min at 30 °C prior to measurement. The assay for the human HSP90α–p23 binding inhibitor identification was performed analogously, with the exception that samples were incubated for 15 min at 37 °C prior to measurement. Since binding samples show both a high EmFRET as well as a reduction in donor emission (FLDD), we calculated the quotient (EmFRET/FLDD) to derive an improved signal separation and robustness. The nucleoside-mimetics library was obtained from Enamine (catalog No. NML-320-X-20, Enamine Ltd., Kyiv, Ukraine). Z′ and Z factors were calculated based on Zhang et al..

[8] = biological target: T4, C. albicans HSP90-mNeonGreen–Sba1-mScarlet-I binding (Candida albicans, UniProt P46598, E36A); details: 20 µM added; 1 µM HSP90-mNeonGreen, 2 µM Sba1-mScarlet-I, 5 mM ATP
T4 construct: made in house; host or cells: E. coli BL21(DE3)
T4 sequence (P46598 whole entry, stated change not applied): as the sequence (P46598 whole entry) above
Description: (§2) In this investigation, 1 µM HSP90-mNeonGreen was incubated with 2 µM Sba1-mScarlet-I in reaction buffer containing 5 mM ATP either alone (UC) or with the addition of 20 µM Sba1. As a negative control, samples containing 20 µM bovine serum albumin (BSA) were used.
as §1
All experiments were carried out in reaction buffer (40 mM HEPES/KOH pH 7.5, 20 mM KCl, 5 mM MgCl2, 20 mM Na2MoO4, Triton-X 100 0.1%). HEPES and KCl were purchased from AppliChem, Darmstadt, Germany. […]

[9] = biological target: T5, human HSP90α-mNeonGreen–p23-mScarlet-I binding (Homo sapiens, UniProt P07900, E47A); assay: FRET characterization of model inhibitors and ATP on human HSP90α-p23 binding; details: 5 mM ATP; for effect on FRET emission (EmFRET) versus untreated control: 20 µM added, 1 µM HSP90α-mNeonGreen, 2 µM p23-mScarlet-I
T5 construct: made in house; host or cells: E. coli Rosetta2(DE3) pLysS
Description: as §2, §1
All experiments were carried out in reaction buffer (40 mM HEPES/KOH pH 7.5, 20 mM KCl, 5 mM MgCl2, 20 mM Na2MoO4, Triton-X 100 0.1%). HEPES and KCl were purchased from AppliChem, Darmstadt, Germany. KOH and MgCl2 were obtained from VWR Chemicals, Darmstadt, Germany. Na2MoO4 was from Merck, Darmstadt, Germany. Triton-X 100 was purchased from Serva, Heidelberg, Germany.
For C. albicans Sba1 competition experiments for HSP90-mNeonGreen–Sba1-mScarlet-I binding, 1 µM HSP90-mNeonGreen and 1 µM Sba1-mScarlet-I were incubated with varying concentrations of Sba1 in a range of 0–25,000 nM (lowest non-zero concentration 12 nM) in reaction buffer containing 5 mM ATP. The experiment was performed twice in nonaplicates. For human p23 competition experiments for HSP90α-mNeonGreen–p23-mScarlet-I binding, 1 µM HSP90α-mNeonGreen and 1 µM p23-mScarlet-I were incubated with varying concentrations of p23 in a range of 0–50 000 nM (lowest non-zero concentration 23 nM) in reaction buffer containing 5 mM ATP. The experiment was performed twice in hexaplicates. […] The experiment was performed thrice in triplicates. […] The IC50,rel values were calculated using the equation log (inhibitor) vs. response-variable slope (four parameters) in GraphPad Prism 5. Ki values for inhibition of HSP90-mNeonGreen–Sba1-mScarlet-I/p23-mScarlet-I binding by non-labeled Sba1/p23 were calculated with One Site—Fit Ki in GraphPad Prism 5. […] The EC50,rel values were calculated using the log (agonist) vs. response-variable slope (four parameters) equation in GraphPad Prism 5.

[10] = biological target: human HSP90β; set-up: method as in PMID 16403413; details: read-out: Kd of human HSP90β–p23 complex; cited from earlier work
[11] = system: human HSP90α; set-up: method as in PMID 16403413; details: cited from earlier work

In the case of `Nc1ncnc2c1ncn2[C@@H]1O[C@H](COP(=O)(O)OP(=O)(O)NP(=O)(O)O)[C@@H](O)[C@H]1O` [AMP-PNP], the Kd [1] is given as 200000 ± 70000 nM, the Kd [2] is given as 148000 ± 12000 nM and the Kd [3] is given as 39000 ± 12000 nM.
For `COc1c(C)cnc(Cn2cnc3c(Cl)nc(N)nc32)c1C` [BIIB021], the “hit identification (EmFRET/FLDD decrease of more than 3 SDs from binding control mean)” value [4] is listed as “reliably identified as disrupting HSP90-Sba1 binding; also recorded: reliably identified as hits”, the Ki ([5]; Table S1, read-out: Ki (printed in the Kd value column)) is listed as […] and the “Influence on p23/Sba1 binding” value [6] is listed as “Yes”.
For `CC1(C)CC(=O)c2c(C(F)(F)F)nn(-c3ccc(C(N)=O)c(N[C@H]4CC[C@H](OC(=O)CN)CC4)c3)c2C1` [SNX-5422], the “hit identification (EmFRET/FLDD decrease of more than 3 SDs from binding control mean)” value [4] is listed as “reliably identified as disrupting HSP90-Sba1 binding; also recorded: reliably identified as hits”, the “hit identification (EmFRET/FLDD decrease of more than 3 SDs from binding control mean)” value [7] is listed as “reliably identified as hits” and the Kd ([5]; Table S1, according to literature) is listed as 16 nM. The “Influence on p23/Sba1 binding” value [6] was “Yes”.
In the case of bovine serum albumin [BSA], the “effect on FRET emission (EmFRET) versus untreated control” value [8] is reported as “did not show a significant influence; also recorded: no significant (n.s.) reduction” and the “effect on FRET emission (EmFRET) versus untreated control” value [9] is reported as “did not show a significant influence”.
With “p23: unlabeled human HSP90 co-chaperone p23 (Q15185), His6-tagged” the “effect on FRET emission (EmFRET) versus untreated control” value [9] was “significant reduction in FRET emission”, the IC50 ([9]; donor and acceptor both 1 µM, read-out: relative IC50, inhibition of HSP90α-mNeonGreen–p23-mScarlet-I binding) was 1400 ± 200 nM and the “hit identification (EmFRET/FLDD decrease of more than 3 SDs from binding control mean)” value [7] was “identified as hits”. The Kd [10] was 1500 nM and the “effect on HSP90 ATPase activity upon binding” value [11] was “complete abrogation”.
